Experimental data from EP0478964A1, “Pyrazoloquinoline derivatives” (SHIONOGI SEIYAKU KABUSHIKI KAISHA, priority 1990, dated 1992).
pKi: −log10 of the molar value.

Legend:
[1] = test system: convulsion induced by pentylenetetrazol; test: Test of potentiating convulsion induced by pentylenetetrazol (inverse agonist activity); format: in vivo, mice; conditions: Mus musculus, iv, read-out: ED₅₀
Method: (§1) Inverse agonist activity was evaluated by the following procedure. A certain amount of a test compound was administered intravenously to 8-16 male mice per group, followed by pentylenetetrazol at a subcuataneous dose of 90 mg/kg. The dose (ED₅₀) at which 50% of mice stayed alive, was calculated by the Probit method.

BDZ receptor = BDZ receptor binding assay (displacement of tritium labeled diazepam); conditions: cerebral cortex of Wistar rats; 2nM tritium labeled diazepam; 0 °C for 60 minutes; Ki calculated from IC50
Method: This test was carried out according to the modified method of Möhler & Okada, Science, 198, 849-851 (1977).
The BDZ receptor preparation was provided from the cerebral cortex of Wistar rats (male, 11 to 13 week-old). Inhibitory activities of the test compound were determined by the specific binding strengh of tritium labeled diazepam to the receptor. 2nM tritium labeled diazepam and an aqeuous solution of the test compound at 5 or 6 different concentrations were incubated at 0 °C for 60 minutes. The 50 % inhibitory concentration (IC₅₀) was measured by the concentration-response curve.
The inhibitory constant (Ki) was calculated according to the following equation, in which Kd is the dissociation constant of the tritium labeled diazepam and L is the concentration of the labeled ligand. [formula]

[2] = test system: convulsion induced by pentylenetetrazol; test: Test of suppressing convulsion induced by pentylenetetrazol (agonist activity); format: in vivo; conditions: Mus musculus; male mice; test compound intravenously; pentylenetetrazol subcutaneous 125 mg/kg; dose at which 50% of mice was alive; Probit method; read-out: ED₅₀
Method: as §1, with “Agonist” for “Inverse agonist”, “125” for “90”, “was” for “stayed”

SMILES	ED50 ([1]; male mice, test compound intravenously, pentylenetetrazol subcutaneous 90 mg/kg, dose at which 50% of mice stayed alive, Probit method)	pKi (BDZ receptor)	ED50 [2]	ED50 [1]
O=c1c2c[nH]c3ccccc3c-2nn1C1=CCCC1 [I-1, 2-(Cyclopenten-1-yl)-2,5-dihydro-3H-pyrazolo[4,3-c]quinolin-3-one]	1.07 mg/kg	9.28	–	–
COc1ccc2[nH]cc3c(=O)n(C4=CCOC4)nc-3c2c1 [I-11, 8-Methoxy-2-(2,5-dihydrofuran-3-yl)-2,5-dihydro-3H-pyrazolo[4,3-c]quinolin-3-one]	–	9.16	–	–
O=c1c2c[nH]c3ccccc3c-2nn1C1=CCCCC1 [I-16]	–	8.82	–	–
CC(C)/C=C/n1nc2c3ccccc3[nH]cc-2c1=O [I-21]	–	9.01	0.72 mg/kg	–
C/C=C/n1nc2c3ccccc3[nH]cc-2c1=O [I-24]	–	9.00	–	0.23 mg/kg
CC1CC=C(n2nc3c4ccccc4[nH]cc-3c2=O)CC1 (stereo not drawn) [I-25]	–	8.51	0.69 mg/kg	–
O=c1c2c[nH]c3ccc(F)cc3c-2nn1C1=CCCC1 [I-31]	–	9.32	–	0.81 mg/kg
COc1ccc2c3nn(C4=CCCC4)c(=O)c-3c[nH]c2c1 [I-34]	–	8.68	–	–
Cc1ccc2[nH]cc3c(=O)n(C4=CCCC4)nc-3c2c1 [I-36]	–	9.32	–	0.4 mg/kg
O=c1c2c[nH]c3ccccc3c-2nn1C1=CCOC1 [I-38]	–	9.23	–	–
CC1(C)C=C(n2nc3c4ccccc4[nH]cc-3c2=O)CO1 [I-39]	–	9.54	0.19 mg/kg	–
